The source made the active and inactive calls. The rule behind the calls is not given here.
Columns and labels:
Botrytis cinerea [1] = assay: Antifungal activity against Benzimidalzole-resistant Botryotinia fuckeliana isolate Bc-44 infected kidney bean leaves at 12.5 ppm treated as foliar application followed by incubation for 7 days in green house condition; format: functional
Cercospora beticola [2] = assay: Antifungal activity against Benzimidalzole-resistant Cercospora beticola isolate Cb-19 infected in sugar beet seedlings at 3.1 ppm treated as foliar application 7 days prior to inoculation; format: functional
Cercospora beticola [3] = assay: Antifungal activity against Benzimidalzole-resistant Cercospora beticola isolate Cb-19 infected in sugar beet seedlings at 50 ppm 24 hr-post inoculation; format: functional
Botrytis cinerea [4] = assay: Antifungal activity against Benzimidalzole-resistant Botryotinia fuckeliana isolate Bc-44 infected kidney bean leaves at 3.1 ppm treated as foliar application followed by incubation for 7 days in green house condition; format: functional
Botrytis cinerea [5] = assay: Ratio of EC50 for Benzimidalzole-resistant Botryotinia fuckeliana isolate Bc-40 to EC50 for Benzimidalzole-resistant Botryotinia fuckeliana isolate Bc-31; format: functional
Botrytis cinerea [6] = assay: Ratio of EC50 for Benzimidalzole-resistant Botryotinia fuckeliana isolate Bc-20 to EC50 for Benzimidalzole-resistant Botryotinia fuckeliana isolate Bc-44; format: functional
Botrytis cinerea [7] = assay: Ratio of EC50 for Benzimidalzole-sensitive Botryotinia fuckeliana isolate Bc-9 to EC50 for Benzimidalzole-resistant Botryotinia fuckeliana isolate Bc-31; format: functional
Botrytis cinerea [8] = assay: Ratio of EC50 for Benzimidalzole-sensitive Botryotinia fuckeliana isolate Bc-3 to EC50 for Benzimidalzole-resistant Botryotinia fuckeliana isolate Bc-31; format: functional
Botrytis cinerea [9] = assay: Antifungal activity against Benzimidalzole-resistant Botryotinia fuckeliana isolate Bc-44 infected compound-treated kidney bean leaves at 12.5 ppm after 4 days; format: functional
Cercospora beticola [10] = assay: Antifungal activity against Benzimidalzole-resistant Cercospora beticola isolate Cb-19 infected in sugar beet seedlings at 200 ppm applied as soil drench 3 days prior to inoculation; format: functional
Botrytis cinerea [11] = assay: Antifungal activity against Benzimidalzole-resistant Botryotinia fuckeliana isolate Bc-31 at 0.001 to 1000 ppm after 3 days by agar dilution method; format: functional, organism-based
Botrytis cinerea [12] = assay: Antifungal activity against Benzimidalzole-resistant Botryotinia fuckeliana isolate Bc-20 at 0.001 to 1000 ppm after 3 days by agar dilution method; format: functional, organism-based
Botrytis cinerea [13] = assay: Antifungal activity against Benzimidalzole-resistant Botryotinia fuckeliana isolate Bc-40 at 0.001 to 1000 ppm after 3 days by agar dilution method; format: functional, organism-based
Cercospora beticola [14] = assay: Ratio of EC50 for […] to EC50 for Benzimidalzole-resistant Cercospora beticola isolate 49-4; format: functional
Cercospora beticola [15] = assay: Ratio of EC50 for […] to EC50 for Benzimidalzole-resistant Cercospora beticola isole 28-8; format: functional
Cercospora beticola [16] = assay: Ratio of EC50 for Benzimidalzole-resistant Cercospora beticola isolate 20-2 to EC50 for Benzimidalzole-resistant Cercospora beticola isolate 1-3; format: functional
Cercospora beticola [17] = assay: Ratio of EC50 for Benzimidalzole-resistant Cercospora beticola isolate 18-11 to EC50 for Benzimidalzole-resistant Cercospora beticola isolate 18-2; format: functional
Cercospora beticola [18] = assay: Ratio of EC50 for Benzimidalzole-resistant Cercospora beticola isolate 18-11 to EC50 for Benzimidalzole-resistant Cercospora beticola isole 28-8; format: functional
Cercospora beticola [19] = assay: Ratio of EC50 for Benzimidalzole-resistant Cercospora beticola isolate 6-13 to EC50 for Benzimidalzole-resistant Cercospora beticola isolate 1-3; format: functional
Cercospora beticola [20] = assay: Ratio of EC50 for Benzimidalzole-resistant Cercospora beticola isolate 6-13 to EC50 for Benzimidalzole-resistant Cercospora beticola isole 28-8; format: functional
Cercospora beticola [21] = assay: Antifungal activity against Benzimidalzole-resistant Cercospora beticola isolate 20-2 at 0.001 to 1000 ppm after 14 days by agar dilution method; format: functional, organism-based
Cercospora beticola [22] = assay: Antifungal activity against Benzimidalzole-resistant Cercospora beticola isolate 6-13 at 0.001 to 1000 ppm after 14 days by agar dilution method; format: functional, organism-based
Cercospora beticola [23] = assay: Antifungal activity against Benzimidalzole-resistant Cercospora beticola isolate Cb-19 at 0.001 to 1000 ppm after 14 days by agar dilution method; format: functional, organism-based
Cercospora beticola [24] = assay: Antifungal activity against Benzimidalzole-resistant Cercospora beticola isolate 49-4 at 0.001 to 1000 ppm after 14 days by agar dilution method; format: functional, organism-based
Cercospora beticola [25] = assay: Antifungal activity against Benzimidalzole-resistant Cercospora beticola isolate 18-2 at 0.001 to 1000 ppm after 14 days by agar dilution method; format: functional, organism-based
Cercospora beticola [26] = assay: Ratio of EC50 for Benzimidalzole-sensitive Cercospora beticola isolate 24-3 to EC50 for Benzimidalzole-resistant Cercospora beticola isolate 49-4; format: functional
Cercospora beticola [27] = assay: Ratio of EC50 for Benzimidalzole-sensitive Cercospora beticola isolate 24-3 to EC50 for Benzimidalzole-resistant Cercospora beticola isolate 1-3; format: functional
Cercospora beticola [28] = assay: Ratio of EC50 for Benzimidalzole-sensitive Cercospora beticola isolate 24-3 to EC50 for Benzimidalzole-resistant Cercospora beticola isole 28-8; format: functional
Cercospora beticola [29] = assay: Ratio of EC50 for Benzimidalzole-sensitive Cercospora beticola isolate 22-5 to EC50 for Benzimidalzole-resistant Cercospora beticola isolate 49-4; format: functional
Cercospora beticola [30] = assay: Ratio of EC50 for Benzimidalzole-sensitive Cercospora beticola isolate 22-5 to EC50 for Benzimidalzole-resistant Cercospora beticola isole 28-8; format: functional
Cercospora beticola [31] = assay: Ratio of EC50 for Benzimidalzole-sensitive Cercospora beticola isolate 22-5 to EC50 for Benzimidalzole-resistant Cercospora beticola isole Cb-19; format: functional
Cercospora beticola [32] = assay: Ratio of EC50 for Benzimidalzole-sensitive Cercospora beticola isolate 18-1 to EC50 for Benzimidalzole-resistant Cercospora beticola isolate 49-4; format: functional
Cercospora beticola [33] = assay: Ratio of EC50 for Benzimidalzole-sensitive Cercospora beticola isolate 18-1 to EC50 for Benzimidalzole-resistant Cercospora beticola isolate 18-2; format: functional
Cercospora beticola [34] = assay: Ratio of EC50 for Benzimidalzole-sensitive Cercospora beticola isolate 18-1 to EC50 for Benzimidalzole-resistant Cercospora beticola isolate 1-3; format: functional
Botrytis cinerea [35] = assay: Antifungal activity against Benzimidalzole-resistant Botryotinia fuckeliana isolate Bc-44 infected kidney bean leaves at 3.1 ppm 24 hr post-infection measured after 3 days; format: functional
Botrytis cinerea [36] = assay: Antifungal activity against Benzimidalzole-resistant Botryotinia fuckeliana isolate Bc-44 infected kidney bean leaves at 12.5 ppm 24 hr post-infection measured after 3 days; format: functional
Botrytis cinerea [37] = assay: Antifungal activity against Benzimidalzole-resistant Botryotinia fuckeliana isolate Bc-44 infected kidney bean leaves at 200 ppm 24 hr post-infection measured after 3 days; format: functional
Cercospora beticola [38] = assay: Antifungal activity against Benzimidalzole-resistant Cercospora beticola isolate 18-2 infected in compound-treated sugar beet seedlings at 3.1 ppm after 12 days; format: functional
Cercospora beticola [39] = assay: Antifungal activity against Benzimidalzole-resistant Cercospora beticola isolate 18-2 infected in compound-treated sugar beet seedlings at 50 ppm after 12 days; format: functional
Cercospora beticola [40] = assay: Antifungal activity against Benzimidalzole-resistant Cercospora beticola isolate 18-2 infected in compound-treated sugar beet seedlings at 200 ppm after 12 days; format: functional
Cercospora beticola [41] = assay: Antifungal activity against Benzimidalzole-resistant Cercospora beticola isolate Cb-19 infected in compound-treated sugar beet seedlings at 3.1 ppm after 12 days; format: functional
Cercospora beticola [42] = assay: Antifungal activity against Benzimidalzole-resistant Cercospora beticola isolate Cb-19 infected in compound-treated sugar beet seedlings at 12.5 ppm after 12 days; format: functional
Botrytis cinerea [43] = assay: Antifungal activity against Benzimidalzole-resistant Botryotinia fuckeliana isolate Bc-44 infected compound-treated kidney bean leaves at 3.1 ppm after 4 days; format: functional

`C#CCOc1cc(N/C=N/OC)cc(Cl)c1OCC#C` showed an Activity (Botrytis cinerea [1]) of 63%, an Activity (Cercospora beticola [2]) of 58% and an Activity (Cercospora beticola [3]) of 100%. For the same molecule, the Activity (Botrytis cinerea [4]) was 31%, the Ratio EC50 (Botrytis cinerea [5]) was > 1000 and the Ratio EC50 (Botrytis cinerea [6]) was > 1000. For the same molecule, the Ratio EC50 (Botrytis cinerea [7]) was > 1000, the Ratio EC50 (Botrytis cinerea [8]) was > 1000 and the Activity (Botrytis cinerea [9]) was 100%. The Activity (Cercospora beticola [10]) was 94%, the Activity (Botrytis cinerea [11]) was “Active” and the Activity (Botrytis cinerea [12]) was “inactive”. The Activity (Botrytis cinerea [13]) was “inactive”, the Ratio EC50 (Cercospora beticola [14]) was > 1000 and the Ratio EC50 (Cercospora beticola [15]) was > 1000. For the same molecule, the Ratio EC50 (Cercospora beticola [16]) was > 1000, the Ratio EC50 (Cercospora beticola [17]) was > 1000 and the Ratio EC50 (Cercospora beticola [18]) was > 1000. The Ratio EC50 (Cercospora beticola [19]) was > 1000, the Ratio EC50 (Cercospora beticola [20]) was > 1000 and the Activity (Cercospora beticola [21]) was “inactive”. For the same molecule, the Activity (Cercospora beticola [22]) was “inactive”, the Activity (Cercospora beticola [23]) was “Active” and the Activity (Cercospora beticola [24]) was “Active”. For the same molecule, the Activity (Cercospora beticola [25]) was “Active”, the Ratio EC50 (Cercospora beticola [26]) was > 1000 and the Ratio EC50 (Cercospora beticola [27]) was > 1000. The Ratio EC50 (Cercospora beticola [28]) was > 1000, the Ratio EC50 (Cercospora beticola [29]) was > 1000 and the Ratio EC50 (Cercospora beticola [30]) was > 1000. The Ratio EC50 (Cercospora beticola [31]) was > 1000, the Ratio EC50 (Cercospora beticola [32]) was > 1000 and the Ratio EC50 (Cercospora beticola [33]) was > 1000. The Ratio EC50 (Cercospora beticola [34]) was > 1000, the Activity (Botrytis cinerea [35]) was 91% and the Activity (Botrytis cinerea [36]) was 100%. It also gave an Activity (Botrytis cinerea [37]) of 100%, an Activity (Cercospora beticola [38]) of 84% and an Activity (Cercospora beticola [39]) of 100%. The Activity (Cercospora beticola [40]) was 100%, the Activity (Cercospora beticola [41]) was 94% and the Activity (Cercospora beticola [42]) was 100%. It also gave an Activity (Botrytis cinerea [43]) of 100%.

From ChEMBL document CHEMBL3046025, “Fungitoxic Properties of N-Phenylformamidoximes in Control of Benzimidazole-Resistant Isolates of Fungi” (1992)
